The values that follow are results of earlier work, collected in US11559486B2, “Ready-to-use formulation for Vincristine Sulfate Liposome Injection” (Spectrum Pharmaceuticals, Inc., priority 2015, dated 2023).

The structures appear in SMILES notation.

The conditions of the data set: 0.45% aqueous sodium chloride and Ringers admixtures at 25° C. to 37° C.

As for `CC[C@]1(O)C[C@H]2CN(CCc3c([nH]c4ccccc34)[C@@](C(=O)OC)(c3cc4c(cc3OC)N(C=O)[C@H]3[C@@](O)(C(=O)OC)[C@H](OC(C)=O)[C@]5(CC)C=CCN6CC[C@]43[C@@H]65)C2)C1` [vincristine, (3aR,3a^1R,4R,5S,5aR,10bR)-methyl-4-acetoxy-3a-ethyl-9-((5S,7S,9S)-5-ethyl-5-hydroxy-9-(methoxycarbonyl)-2,4,5,6,7,8,9,10-octahydro-1H-3,7-methano[1]azacycloundecino[5,4-b]indol-9-yl)-6-formyl-5-hydroxy-8-methoxy-3a,3a1,4,5,5a,6,11,12-octahydro-1H-indolizino[8,1-cd]carbazole-5-carboxylate], the “degradation in chloride-containing admixtures” value is “degrade rapidly”. Take `COc1cccc2c1C(=O)c1c(O)c3c(c(O)c1C2=O)C[C@@](O)(C(=O)CO)C[C@@H]3O[C@H]1C[C@H](N)[C@H](O)[C@H](C)O1` [Doxorubicin]: the “degradation in chloride-containing admixtures” value is listed as “degrade rapidly”.
